Patent US6410566B1, “Cyclic amine derivatives and their use as drugs” (Teijin Limited, priority 2000, dated 2002)

Tests used:
THP-1 cells = assay: Inhibition of cell chemotaxis caused by MCP-1; assay type: cell-based; conditions: Homo sapiens, MCP-1 20 ng/mL, read-out: inhibition of cell migration IC50
Protocol: Measurement of Inhibition of Cell Chemotaxis
In order to determine the inhibition of cell chemotaxis by the compounds of this invention, we measured cell chemotaxis caused by monocyte chemotactic factor MCP-1 using the human monocytic leukemia cell line THP-1 as the chemotactic cell according to the method of Fall et al. (J. Immunol. Methods, 190, 33,239-247). 2×10^6 cells/mL of THP-1 cells (suspended in RPMI-1640 (Flow Laboratories Co.)+10% FCS) was placed in the upper chamber (200 μL) of a 96 well micro-chemotaxis chamber (Neuroprobe; registered tradename), and human recombinant MCP-1 in a same solution (Peprotech Co.) at a final concentration of 20 ng/mL was placed in the lower chamber, with a polycarbonate filter (PVP-free, Neuroprobe; registered tradename) placed between the two chambers. These were incubated at 37° C. for 2 hr in 5% CO2.
The filter was removed, and the cells which had migrated to the underside of the filter was fixed, stained using Diff Quick (Kokusai Shiyaku Co.) and then quantitated using a plate reader (Molecular Device Co.) at a wavelength of 550 nm to determine the index of cell migration as a mean of 3 wells. In addition, test compounds were placed in the upper and lower chambers along with THP-1 and MCP-1, respectively, and the inhibition of cell migration (inhibition IC50 (μM)) was determined.

[1] = biological target: T1, binding of human MCP-1 to THP-1 cells (Homo sapiens, UniProt P41597); assay: Inhibition of binding of [125I]-labeled baculovirus expressed human MCP-1 to THP-1 cells (Method 2); conditions: Method 2, at 1 μM
T1 construct: endogenous in cells; host or cells: THP-1 (human monocytic leukemia cell line), whole cells
T1 sequence (P41597 1-360 isoform P41597-2): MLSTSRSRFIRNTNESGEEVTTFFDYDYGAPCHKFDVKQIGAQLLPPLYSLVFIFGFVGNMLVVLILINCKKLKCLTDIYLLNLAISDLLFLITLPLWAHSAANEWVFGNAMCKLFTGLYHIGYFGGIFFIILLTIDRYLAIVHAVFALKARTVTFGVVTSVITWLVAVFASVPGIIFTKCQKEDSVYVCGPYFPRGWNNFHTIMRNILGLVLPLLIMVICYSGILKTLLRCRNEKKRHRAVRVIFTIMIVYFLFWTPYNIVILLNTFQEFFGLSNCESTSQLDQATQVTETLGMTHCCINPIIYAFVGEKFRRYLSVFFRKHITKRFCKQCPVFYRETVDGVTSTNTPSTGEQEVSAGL
Source text: 1. Construction of recombinant baculovirus carrying the human MCP-1 gene
Based on the previously published human MCP-1 gene sequence (for example T. Yoshirnura et al., FEBS Lett., 1989, 244, 487-493), two synthetic DNA primers (5′-[…]-3′ and 5′-[…]-3′) flanked by restriction enzyme sites were used to amplify a DNA fragment from cDNA derived from human endothelial cells (purchased from Kurabow Co.); the amplified fragment was cut with the restriction enzymes (PstI and XbaI), ligated into a transfer vector pVL1393 (Invitrogen Co.), and the resulting vector was co-transfected along with infectious baculovirus into Sf-9 insect cells and the supernatant was plaque assayed to yield human MCP-1 gene baculovirus recombinant.
2. Synthesis of [^125I]-labeled human MCP-1 expressed in baculovirus
Using the method of K. Ishii et al. (Biochem Biophys Research Communications, 1995, 206, 955-961), 5×10^6 Sf-6 insect cells was infected with 5×10^7 PFU (plaque forming units) of the above human MCP-1 recombinant baculovirus and cultured for 7 days in Ex-Cell 401 medium. The culture supernatant was affinity purified using a heparin Sepharose column (Pharmacia Co.) and then further purified using reverse phase HPLC (Vydac C18 column) to prepare purified human MCP-1. The purified human MCP-1 was protein labeled by Amersham Co. using the Bolton Hunter method to yield [^125I]-labeled baculovirus expressed human MCP-1 (specific activity 2000 Ci/mmol).
3-2. Measurement of inhibition of binding of [^125I]-labeled baculovirus expressed human MCP-1 to THP-1 cells (Method 2)
Human monocytic leukemia cell line THP-1 was suspended in assay buffer (50 mM HEPES, pH 7.4, 1.0 mM CaCl2, 5.0% mM MgCl2, 0.5% BSA) to give a cell suspension of a concentration of 1×10^7 cells/mL. The test compound was diluted in the assay buffer and used as the test compound solution. [^125I]-labeled human MCP-1 described above was diluted in assay buffer to 1 mCi/mL and used as the labeled ligand solution. In a 96 well filter plate (Millipore Co.), 25 μL of test compound solution, 25 μL of labeled ligand solution and 50 μL of cell suspension were aliquoted into each well in this order, stirred (total reaction volume 100 μL), and incubated for one hour at 18° C.
After the reaction, the reaction solution was filtered, and the filter was washed twice with 200 μL of cold PBS (200 μL of cold PBS was added and then filtered). The filter was air-dried and 25 μL of liquid scintillator was added into each well. The radioactivity retained by the cells on the filter were measured using TopCount (Packard Instrument Co.).
To calculate the ability of test compound to inhibit binding of human MCP-1 to THP-1 cells, non-specific binding determined by adding 100 ng of unlabeled human MCP-1 in place of the test compound was subtracted, while the counts with no test compound added was taken as 100%.
Inhibition (%)={1−(A−B)/(C−B)}×100
(A, counts with test compound added; B, counts with 100 ng of unlabeled human MCP-1 added; C, counts with [^125I]-labeled human MCP-1 added).

[2] = biological target: T1, binding of human MCP-1 to THP-1 cells; assay: Inhibition of binding of [125I]-labeled baculovirus expressed human MCP-1 to THP-1 cells (Method 1); conditions: for inhibition at 10 µM: Method 1, at 10 μM; for inhibition at 100 µM: Method 1, at 100 μM
Source text: Measurement of Inhibition of MCP-1 Binding to THP-1 Cells 1. Construction of recombinant baculovirus carrying the human MCP-1 gene Based on the previously published human MCP-1 gene sequence (for example T. Yoshirnura et al., FEBS Lett., 1989, 244, 487-493), two synthetic DNA primers ([NT] and [NT]) flanked by restriction enzyme sites were used to amplify a DNA fragment from cDNA derived from human endothelial cells (purchased from Kurabow Co.); the amplified fragment was cut with the restriction enzymes (PstI and XbaI), ligated into a transfer vector pVL1393 (Invitrogen Co.), and the resulting vector was co-transfected along with infectious baculovirus into Sf-9 insect cells and the supernatant was plaque assayed to yield human MCP-1 gene baculovirus recombinant. […] Using the method of K. Ishii et al. […] The culture supernatant was affinity purified using a heparin Sepharose column (Pharmacia Co.) and then further purified using reverse phase HPLC (Vydac C18 column) to prepare purified human MCP-1. […] 3-1. […] The test. compound was diluted in the assay buffer and used as the test compound solution. [^125I]-labeled human MCP-1 described above was diluted in assay buffer to 1 mCi/mL and used as the labeled ligand solution. In a 96 well filter plate (Millipore Co.), 25 μL of test compound solution, 25 μL of labeled ligand solution and 50 μL of cell suspension were aliquoted into each well in this order, stirred (total reaction volume 100 μL), and incubated for one hour at 18° C. After the reaction, the reaction solution was filtered, and the filter was washed twice with 200 μL of cold PBS (200 μL of cold PBS was added and then filtered). The filter was air-dried and 25 μL of liquid sciatillator was added into each well. The radioactivity retained by the cells on the filter were measured using TopCount (Packard Instrument Co.). To calculate the ability of test compound to inhibit binding of human MCP-1 to THP-1 cells, non-specific binding determined by adding 100 ng of unlabeled human MCP-1 in place of the test compound was subtracted, while the counts with no test compound added was taken as 100%. Inhibition (%)=(1-(A-B)/(C-B))×100 (A, counts with test compound added; B, counts with 100 ng of unlabeled human MCP-1 added; C, counts with [^125I]-labeled human MCP-1 added).

| IC50 (THP-1 cells) | inhibition at 1 µM [1] | inhibition at 10 µM [2] | inhibition at 100 µM [2] | Compound |
| --- | --- | --- | --- | --- |
| < 0.1 µM |  |  |  | Nc1cc(CN2CCC(CNC(=O)CNC(=O)c3cc(F)c(F)cc3N)CC2)ccc1O [Compound No. 2141, 4-[{N-(2-amino-4,5-difluorobenzoyl)glycyl}aminomethyl]-1-(3-amino-4-hydroxybenzyl)piperidine] |
| < 0.1 µM | > 80% |  |  | Nc1cc(CN2CC[C@@H](NC(=O)CNC(=O)c3cc(C(F)(F)F)ccc3N)C2)ccc1Cl [Compound No. 2132, (R)-1-(3-Amino-4-chlorobenzyl)-3-[{N-(2-amino-5-trifluoromethylbenzoyl)glycyl}amino]pyrrolidine] |
| < 0.1 µM |  |  |  | CNc1cc(CN2CC[C@@H](NC(=O)CNC(=O)c3cc(C(F)(F)F)ccc3N)C2)ccc1O [Compound No. 2158, (R)-3-[{N-(2-Amino-5-trifluoromethylbenzoyl)glycyl}amino]-1-(3-methylamino-4-hydroxybenzyl)pyrrolidine] |
| < 0.1 µM | > 80% |  |  | Cc1noc(C)c1CN1CC[C@@H](NC(=O)CNC(=O)c2cc(F)cc(C(F)(F)F)c2)C1 [compound 1191, (R)-3-[N-(3-Fluoro-5(trifluoromethyl)benzoyl)glycyl]amino-1-(3,5-dimethylisoxazol-4-ylmethyl)pyrrolidine] |
|  |  |  | > 80% | O=C(CNC(=O)c1cc(C(F)(F)F)cc(C(F)(F)F)c1)N[C@H]1CCN(Cc2ccc(Cl)cc2)C1 [compound 5, (S)-3-[N-{3,5-Bis (trifluoromethyl)benzoyl}glycyl]amino-1-(4-chlorobenzyl)pyrrolidine] |

Continued, molecule first:

| Compound | IC50 (THP-1 cells) | inhibition at 1 µM [1] | inhibition at 10 µM [2] | inhibition at 100 µM [2] |
| --- | --- | --- | --- | --- |
| C=Cc1ccc(CN2CC[C@@H](NC(=O)CNC(=O)c3cc(C(F)(F)F)ccc3N)C2)cc1 [Compound No. 1701, (R)-3-[{N-(2-Amino-5-(trifluoromethyl)benzoyl)glycyl}amino]-1-(4-vinylbenzyl)pyrrolidine] | < 0.1 µM | > 80% |  |  |
| Cc1ccc(CN2CCC(CNC(=O)CNC(=O)c3cc(F)c(F)cc3N)CC2)cc1N [Compound No. 2114, 4-[{N-(2-Amino-4,5-difluorobenzoyl)glycyl}aminomethyl]-1-(3-amino-4-methylbenzyl)piperidine] | < 0.1 µM | > 80% |  |  |
| COc1ccc(CN2CC[C@@H](NC(=O)CNC(=O)c3cc(OC(F)(F)F)ccc3N)C2)cc1O [Compound No. 1896, (R)-3-[{N-(2-Amino-5-trifluoromethoxybenzoyl)glycyl}amino]-1-(3-hydroxy-4-methoxybenzyl)pyrrolidine] | < 0.1 µM | > 80% |  |  |
| O=C(CNC(=O)c1cccc(C(F)(F)F)c1)N[C@H]1CCN(Cc2ccccc2)C1 [Compound No. 239, (S)-1-Benzyl-3-[N-{3-(trifluoromethyl)benzoyl}glycyl]aminopyrrolidine] |  |  | 20 to 50% |  |
| O=C(CNC(=O)Nc1ccc(C(F)(F)F)cc1)NCC1CCN(Cc2ccc(Cl)cc2)CC1 [Compound No. 852, 1-(4-Chlorobenzyl)-4-[{2-(3-(4-trifluoromethylphenyl)ureido)acetylamino}methyl]piperidine] |  |  |  | > 80% |
| Nc1cc(Cl)ccc1CN1CC[C@@H](NC(=O)CNC(=O)c2cc(OC(F)(F)F)ccc2N)C1 [Compound No. 1921, (R)-3-[{N-(2-Amino-5-trifluoromethoxybenzoyl)glycyl}amino]-1-(2-amino-4-chlorobenzyl)pyrrolidine] | < 0.1 µM | > 80% |  |  |
| O=C(CNC(=O)c1ccccc1)NCC1CCCN(Cc2ccc(Cl)cc2)C1 (stereo not drawn) [Compound No. 434, 3-{(N-Benzoylglycyl)amino}methyl-1-(4-chlorobenzyl)piperidine] |  |  | 50 to 80% |  |
